In patent US20210228523A1, “MODULATORS OF SESTRIN-GATOR2 INTERACTION AND USES THEREOF” (Navitor Pharmaceuticals, Inc., priority 2017, published 2021):

Molecular target: T1, GATOR2/Sestrin2 complexes (Homo sapiens, UniProt P58004)
T1 construct: endogenous in cells; host or cells: HEK293T cells stably expressing FLAG-WDR24 (lentiviral, pLJM60)
T1 sequence (P58004 1-480): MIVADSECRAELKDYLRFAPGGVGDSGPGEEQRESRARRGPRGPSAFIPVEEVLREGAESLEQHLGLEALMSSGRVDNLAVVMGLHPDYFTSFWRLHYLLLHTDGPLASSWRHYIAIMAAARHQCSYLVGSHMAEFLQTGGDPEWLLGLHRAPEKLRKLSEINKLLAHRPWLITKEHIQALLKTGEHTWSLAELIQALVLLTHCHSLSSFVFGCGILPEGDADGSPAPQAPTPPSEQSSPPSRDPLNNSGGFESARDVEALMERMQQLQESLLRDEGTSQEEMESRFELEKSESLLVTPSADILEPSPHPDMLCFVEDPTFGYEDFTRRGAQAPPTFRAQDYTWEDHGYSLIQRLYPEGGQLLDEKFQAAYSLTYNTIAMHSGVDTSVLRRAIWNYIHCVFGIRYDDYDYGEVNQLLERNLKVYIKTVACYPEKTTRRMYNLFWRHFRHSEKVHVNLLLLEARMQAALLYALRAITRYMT
Test: In vitro PPI assay (Method 1; Western blot assay): Sestrin2 bound to GATOR2 after compound addition to immunoprecipitated FLAG-WDR24 complex
Assay type: binding
Conditions: 25 μM, % activity relative to leucine (25 μM = 100%)
Text: This screening assay measured test compound activity in vitro on GATOR2/Sestrin2 complexes purified via immunoprecipitation of stably expressed FLAG-WDR24 from HEK293T cells. HEK293T cells (293 Ts) were engineered to stably express N-terminally tagged FLAG-WDR24 via transduction by lentivirus. Lentiviruses were produced by co-transfection of the lentiviral transfer vector pLJM60 with the […] into HEK-293T cells using the XTremeGene 9 transfection reagent (Roche Diagnostics). The media was changed 24 hours post-transfection to Dulbecco's Modified Eagle's media (DMEM) supplemented with 30% Inactivated Fetal Serum. The virus-containing supernatants were collected 48 and 72 hours after transfection and passed through a 0.45 μm filter to eliminate cells. Target cells in 6-well tissue culture plates were infected in media containing 8 μg/mL polybrene and spin infections were performed by centrifugation at 2,200 rpm for 1 hour. Twenty-four hours after infection, the virus was removed and the cells selected with the appropriate antibiotic. Cells were then grown in DMEM supplemented with 10% fetal bovine serum and antibiotics.
Seventy-two hours later, cells were placed in standard RPMI media formulated with no amino acids and supplemented with 5 mM Glucose (−AA RPMI, US Biological Life Sciences) for 1 hour then subsequently lysed in lysis buffer (40 mM HEPES, 1% Triton, 10 mM sodium β-glycerophosphate, 10 mM sodium pyrophosphate, 2.5 mM MgCl2 and protease inhibitors). To isolate the FLAG-WDR24/endogenous-Sestrin2 complex, crude lysate (equivalent to 2-4 mg of total protein) in a volume of 1 ml was subjected to immunoprecipitation with 30 μl of anti-flag resin (SIGMA) for 2 hours at 4° C., washed twice in cold lysis buffer plus 0.5M NaCl and resuspended in 1 ml of cold cytosolic buffer (40 mM HEPES pH 7.4, 140 mM KCl, 10 mM NaCl, 2.5 mM MgCl2, 0.1% TritonX-100). […] After the incubation period, samples were centrifuged to pellet the FLAG-WDR24/endogenous-Sestrin2 complex bound to the anti-flag resin, the supernatant was completely removed and resin was resuspended in SDS-PAGE sample buffer and boiled for 5 minutes. Samples were then processed by SDS-PAGE and western blots were performed with anti-FLAG (SIGMA) and anti-Sestrin2 (Cell Signaling Technology) antibodies as described in L. Chantranupong, et al., Cell Reports 9:1-8 (2014).
The resulting western blots were scanned and band intensities corresponding to Sestrin2 and FLAG-WDR24 were quantified using the LI-COR® imaging platform. To determine the amount of Sestrin2 bound to GATOR2 for each condition, the band intensity for Sestrin2 was normalized to the band intensity of FLAG-WDR24. […]
72 hours later, cells were placed in standard RPMI media formulated with no amino acids and supplemented with 5 mM Glucose (−AA RPMI, USBiological Life Sciences) for 1 hour then subsequently lysed in lysis buffer (40 mM HEPES, 1% Triton, 10 mM Sodium Beta-Glycerophosphate, 10 mM Sodium Pyrophosphate, 2.5 mM MgCl2 and protease inhibitors). The Flag-WDR24/endogenous-Sestrin2 complex was isolated as follows: crude lysate (equivalent to 2-4 mg of total protein) in a volume of 1 ml was subjected to immunoprecipitation (IP) with 30 μl of anti-flag resin (SIGMA) for 2 hours at 4° C., washed twice in cold lysis buffer plus 0.5M NaCl and resuspended in 1 ml of cold cytosolic buffer (40 mM HEPES pH 7.4, 140 mM KCl, 10 mM NaCl, 2.5 mM MgCl2, 0.1% TritonX-100). Compounds were then added to each sample at a given concentration of 25 μM and incubated with rotation at 4° C. for 30 minutes. After the incubation period, samples were centrifuged to pellet the Flag-WDR24/endogenous-Sestrin2 complex bound to the anti-flag resin, the supernatant was completely removed and resin was resuspended in sodium dodecyl sulfate-polyacrylamide gel electrophoresis (SDS-PAGE) sample buffer and boiled for 5 minutes. […]

SMILES | Activity of Leucine: % Activity
CC(C)C[C@H](N)CC(=O)O [Compound I-34] | C (a % activity relative to leucine of between -40 and 40%)
N[C@@H](CC1CC1)C(=O)O [Compound I-35] | A (a % activity relative to leucine of ≥40%)
CC(=O)N[C@@H](CC(C)C)C(=O)O [Compound I-36, (S)-2-acetamido-4-methylpentanoic Acid] | B (a % activity relative to leucine of ≤−40%)
CC(C)C[C@H](N)B1OC(C)(C)C(C)(C)O1 [Compound I-38] | C (a % activity relative to leucine of between -40 and 40%)
COCCC(N)C(=O)O (stereo not drawn) [Compound I-39] | C (a % activity relative to leucine of between -40 and 40%)
N[C@H](CC1CCCC1)C(=O)O [Compound I-40] | A (a % activity relative to leucine of ≥40%)
CC(C)C[C@H](N)C(=O)O [Compound I-44] | A (a % activity relative to leucine of ≥40%)
COC(=O)/C=C/C(=O)N[C@@H](CC(C)C)C(=O)O [Compound I-45, (S,E)-2-(4-methoxy-4-oxobut-2-enamido)-4-methylpentanoic Acid] | B (a % activity relative to leucine of ≤−40%)
CC(C)C(F)(F)[C@H](N)C(=O)O [Compound I-46, (R)-2-amino-3,3-difluoro-4-methylpentanoic Acid] | C (a % activity relative to leucine of between -40 and 40%)
CC(C)C(F)(F)[C@@H](N)C(=O)O [Compound I-47, (S)-2-amino-3,3-difluoro-4-methylpentanoic Acid] | C (a % activity relative to leucine of between -40 and 40%)
CC(C)(C)C[C@H](N)C(N)=O [Compound I-48] | C (a % activity relative to leucine of between -40 and 40%)
CN[C@@H](CC(C)(C)C)C(N)=O [Compound I-49] | C (a % activity relative to leucine of between -40 and 40%)
CN[C@@H](CC(C)(C)C)C(=O)O [Compound I-50] | C (a % activity relative to leucine of between -40 and 40%)
CC(C)C[C@H](N)C(=O)NS(C)(=O)=O.Cl [Compound I-147, (S)-2-amino-4-methyl-N-(methylsulfonyl)pentanamide Hydrochloride] | A (a % activity relative to leucine of ≥40%)
CC(C)C[C@H](N)C(=O)NS(=O)(=O)c1ccccc1 [Compound I-148] | A (a % activity relative to leucine of ≥40%)
CC(C)C[C@H](N)C(=O)N(C)C [Compound I-149] | C (a % activity relative to leucine of between -40 and 40%)
CC(C)C[C@H](N)C(=O)N(C(C)C)C(C)C [Compound I-150] | C (a % activity relative to leucine of between -40 and 40%)

SMILES | Activity of Leucine: % Activity
CC(C)C[C@H](N)C(=O)N1CCCCC1 [Compound I-151] | C (a % activity relative to leucine of between -40 and 40%)
CC(C)C[C@H](N)C(=O)N(C)CC(C)C [Compound I-152] | C (a % activity relative to leucine of between -40 and 40%)
CC(C)C[C@H](N)C(=O)N1CCCC[C@@H]1C [Compound I-153] | C (a % activity relative to leucine of between -40 and 40%)
CC(C)C[C@H](N)C(=O)N1CCCC1 [Compound I-154] | C (a % activity relative to leucine of between -40 and 40%)
CC(C)C[C@H](N)C(=O)N(CC(C)C)CC(C)C [Compound I-155] | C (a % activity relative to leucine of between -40 and 40%)
CC(C)C[C@@H](N)S(=O)(=O)O [Compound I-156] | C (a % activity relative to leucine of between -40 and 40%)
CC(C)C[C@H](N)S(=O)(=O)O [Compound I-157] | B to C
CN(C)[C@@H](CC(C)(C)C)C(N)=O [Compound I-158] | C (a % activity relative to leucine of between -40 and 40%)
CN(C)[C@@H](CC(C)(C)C)C(=O)O [Compound I-159] | A (a % activity relative to leucine of ≥40%)
CC(C)CNC(=O)[C@@H](N)CC(C)C [Compound I-160] | C (a % activity relative to leucine of between -40 and 40%)
CC(C)C[C@H](N)C(=O)N1CCCC[C@H]1C [Compound I-161] | C (a % activity relative to leucine of between -40 and 40%)
CC(C)C[C@H](N)C(=O)N(C)C1CCCC1 [Compound I-162] | C (a % activity relative to leucine of between -40 and 40%)
N[C@H](CC(C(F)(F)F)C(F)(F)F)C(=O)O [Compound I-163] | A (a % activity relative to leucine of ≥40%)
N[C@@H](CC(C(F)(F)F)C(F)(F)F)C(=O)O [Compound I-164, (S)-2-Amino-5,5,5-trifluoro-4-(trifluoromethyl)pentanoic Acid] | A (a % activity relative to leucine of ≥40%)
CC(C)C[C@H](N)C(=O)NC(C)(C)C [Compound I-165] | A to C
CC(C)C[C@H](N)C(=O)NC(C)C [Compound I-166] | C (a % activity relative to leucine of between -40 and 40%)
